Like-named read-outs stand apart in the source and are kept apart here.
Columns and labels:
p38 MAPKα = p38 MAPKα (Homo sapiens (Human), UniProt Q16539); assay: p38 MAPKα enzyme inhibition (FRET, Z-LYTE; Method 2); assay type: biochemical
Experimental: (§1) The enzyme inhibitory activities of compounds disclosed herein are determined by FRET using synthetic peptides labelled with both donor and acceptor fluorophores (Z-LYTE, Invitrogen Ltd., Paisley, UK).
The inhibitory activities of test compounds against the p38 MAPKα isoform (MAPK14: Invitrogen), are evaluated indirectly by determining the level of activation/phosphorylation of the down-stream molecule, MAPKAP-K2. The p38 MAPKα protein (80 ng/mL, 2.5 μL) is mixed with the test compound (2.5 μL of either 4 μg/mL, 0.4 μg/mL, 0.04 μg/mL or 0.004 μg/mL) for 2 hr at RT. […] The mixture is incubated for 1 hr at RT. Development reagent (protease, 5 μL) is added for 1 hr prior to detection in a fluorescence microplate reader (Varioskan® Flash, ThermoFisher Scientific).
Method 2 This method follows the same steps as Method 1 above, but utilises a higher concentration of the p38 MAPKα protein (2.5 μL of 200 ng/mL protein instead of 2.5 μL of 80 ng/mL protein) for mixing with the test compound.
(§2) In all cases, the site-specific protease cleaves non-phosphorylated peptide only and eliminates the FRET signal. Phosphorylation levels of each reaction are calculated using the ratio of coumarin emission (donor) over fluorescein emission (acceptor), for which high ratios indicate high phosphorylation and low ratios indicate low phosphorylation levels. The percentage inhibition of each reaction is calculated relative to non-inhibited control and the 50% inhibitory concentration (IC50 value) is then calculated from the concentration-response curve.

c-Src = c-Src (Homo sapiens (Human), UniProt P12931); assay: c-Src enzyme inhibition (FRET, Z-LYTE); assay type: biochemical
Experimental: as §1
(§3) The inhibitory activities of compounds of the invention against c-Src and Syk enzymes (Invitrogen), are evaluated in a similar fashion to that described hereinabove. The relevant enzyme (3000 ng/mL or 2000 ng/mL respectively, 2.5 μL) is incubated with the test compound (either 4 μg/mL, 0.4 μg/mL, 0.04 μg/mL, or 0.004 μg/mL, 2.5 μL each) for 2 hr at RT. The FRET peptides (8 μM. 2.5 μL), and appropriate ATP solutions (2.5 μL, 800 μM for c-Src, and 60 μM ATP for Syk) are then added to the enzymes/compound mixtures and incubated for 1 hr. Development reagent (protease, 5 μL) is added for 1 hr prior to detection in a fluorescence microplate reader (Varioskan® Flash, ThermoFisher Scientific).
as §2

Syk = Syk (Homo sapiens (Human), UniProt P43405); assay: Syk enzyme inhibition (FRET, Z-LYTE); assay type: biochemical
Experimental: as §1, §3, §2

GSK3α = GSK3α (Homo sapiens (Human), UniProt P49840); assay: GSK 3α enzyme inhibition (FRET, Z-LYTE; Method 2); assay type: biochemical
Summary of the method: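 GSK3-α protein preincubated with compound for 105 min, then Z-LYTE FRET peptide and ATP added for 1 h before protease development for 1 h. Phosphorylation taken from coumarin/fluorescein emission ratio; percent inhibition against uninhibited control and IC50 calculated from concentration-response curves.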

PBMCs [1] = assay: LPS-induced TNFα/IL-8 release in PBMC cells; assay type: cell-based; conditions: Homo sapiens, LPS-stimulated PBMCs
Summary of the method: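 Cytokines (TNFα, IL-8) in supernatants were quantified by sandwich ELISA after a 24 h challenge with 1 ng/mL E. coli LPS at 37° C, 5% CO2. Healthy-donor PBMCs had been exposed to compound for 2 h beforehand. IC50 values were fitted from the concentration-response curves.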

PBMCs [2] = assay: IL-2 and IFN gamma release in CD3/CD28 stimulated PBMC cells; assay type: cell-based; conditions: Homo sapiens
Experimental: PBMCs from healthy subjects are separated from whole blood using a density gradient (Lymphoprep, Axis-Shield Healthcare). Cells are added to a 96 well plate pre-coated with a mixture of CD3/[…] monoclonal antibodies (0.3 μg/mL eBioscience and 3 μg/mL BD Pharmingen respectively). Compound at the desired concentration is then added to the wells and the plate left for 3 days under normal tissue culture conditions. Supernatants are harvested and IL-2 and IFN gamma release determined by Sandwich ELISA (Duo-set, R&D System). The IC50 is determined from the dose response curve.

HT29 cells = assay: IL-1β-induced IL-8 release in HT29 cells; assay type: cell-based; conditions: Homo sapiens, HT-29, IL-1β-stimulated HT29 cells, read-out: IC50 Values for Inhibition of Cytokine Release, HT29 cells IL-8
Experimental: HT29 cells, a human colon adenocarcinorna cell line, are plated in a 96 well plate (24 hrs) and pre-treated with compounds at the desired concentration for 2 hours before addition of 5 ng/mL of IL-1β (Abcam) for 24 hours. Supernatants are harvested for IL-8 quantification by Sandwich ELISA (Duo-set, R&D System). The IC50 is determined from the dose response curve.

[3] = tested on: TNBS-induced colitis in mice; assay: TNBS-induced colitis in mice; assay type: in vivo
Experimental: Non-fasted, 10-12 week old, male BDF1 mice are dosed by oral gavage twice daily with either vehicle (5 mL/kg), reference item (Budesonide 2.5 mg/kg) or test compound (1 or 5 mg/kg) one day before (Day −1) stimulation of the inflammatory response by treatment with 2,4,6-trinitrobenzenesuiphonic acid (TNBS) (15 mg/mL in 50% ethanol/50% saline). On Day 0 of the study TNBS (200 μL) is administered intra-colonically via a plastic catheter followed by BID dosing of the vehicle, reference or test compound for 2 or 4 days. During the study animals are weighed every day and stool observations are made and recorded as a score, based on stool consistency. At the time of sacrifice on Day 2 (or Day 4) the large intestine is removed and the length and weight recorded. Sections of the colon are taken for either MPO analysis to determine neutrophil infiltration or for histopathology involving scoring to determine disease severity.

d-U937 cells = assay: LPS-induced TNFα/IL-8 release in d-U937 cells; assay type: cell-based; conditions: Homo sapiens, dU937, LPS-stimulated d-U937 cells
Experimental: U937 cells, a human monocytic cell line, are differentiated to macrophage-type cells by incubation with phorbol myristate acetate (PMA; 100 ng/mL) for 48 to 72 hr. Cells are pre-incubated with final concentrations of test compound for 2 hr and are then stimulated with 0.1 μg/mL of LPS (from E. Coli: O111:B4, Sigma) for 4 hr. The supernatant is collected for determination of TNFα and IL-8 concentrations by sandwich ELISA (Duo-set, R&D systems). The inhibition of TNFα production is calculated as a percentage of that achieved by 10 μg/mL of BIRB796 at each concentration of test compound by comparison against vehicle control. The relative 50% effective concentration (REC50) is determined from the resultant concentration-response curve. The inhibition of IL-8 production is calculated at each concentration of test compound by comparison with vehicle control. The 50% inhibitory concentration (IC50) is determined from the resultant concentration-response curve.

[4] = IL-8, read-out: IC50 Values for Inhibition of Cytokine Release, PBMCs IL-8
[5] = IFNγ, read-out: IC50 Values for Inhibition of Cytokine Release, PBMCs IFNγ
[6] = IL-2, read-out: IC50 Values for Inhibition of Cytokine Release, PBMCs IL-2
[7] = IL-8, read-out: IC50 Values for Inhibition of Cytokine Release, dU937 cells IL-8
[8] = TNFα (REC50 relative to BIRB796 per method), read-out: IC50 Values for Inhibition of Cytokine Release, dU937 cells TNFα

Chain of c-Src (P12931 whole entry, looked up): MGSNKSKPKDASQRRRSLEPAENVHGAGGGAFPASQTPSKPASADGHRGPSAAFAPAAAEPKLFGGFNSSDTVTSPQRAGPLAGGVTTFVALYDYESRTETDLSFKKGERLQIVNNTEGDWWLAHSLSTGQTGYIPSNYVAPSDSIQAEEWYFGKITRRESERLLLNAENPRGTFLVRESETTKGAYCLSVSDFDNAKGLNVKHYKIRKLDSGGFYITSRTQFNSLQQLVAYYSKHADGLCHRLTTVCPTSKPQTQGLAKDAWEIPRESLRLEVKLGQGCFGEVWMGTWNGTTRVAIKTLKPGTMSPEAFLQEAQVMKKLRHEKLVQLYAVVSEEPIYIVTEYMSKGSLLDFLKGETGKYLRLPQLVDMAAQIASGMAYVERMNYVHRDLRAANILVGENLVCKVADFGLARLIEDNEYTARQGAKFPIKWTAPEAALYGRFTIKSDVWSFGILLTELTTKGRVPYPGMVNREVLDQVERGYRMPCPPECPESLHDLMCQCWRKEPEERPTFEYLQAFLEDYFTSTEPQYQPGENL
Chain of GSK3α (P49840 whole entry): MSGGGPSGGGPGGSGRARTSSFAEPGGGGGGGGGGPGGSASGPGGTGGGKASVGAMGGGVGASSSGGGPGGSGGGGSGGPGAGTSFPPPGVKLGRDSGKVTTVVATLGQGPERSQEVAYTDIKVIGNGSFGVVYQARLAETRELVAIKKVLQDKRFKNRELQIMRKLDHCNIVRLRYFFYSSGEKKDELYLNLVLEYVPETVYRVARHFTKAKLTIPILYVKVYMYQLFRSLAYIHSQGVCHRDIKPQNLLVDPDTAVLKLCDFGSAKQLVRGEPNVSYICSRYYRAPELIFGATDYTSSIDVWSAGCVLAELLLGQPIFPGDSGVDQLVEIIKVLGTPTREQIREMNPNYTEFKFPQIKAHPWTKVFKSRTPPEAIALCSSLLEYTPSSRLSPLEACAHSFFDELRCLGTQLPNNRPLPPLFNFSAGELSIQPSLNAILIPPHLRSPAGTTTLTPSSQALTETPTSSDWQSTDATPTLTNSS
Chain of p38 MAPKα (Q16539 whole entry): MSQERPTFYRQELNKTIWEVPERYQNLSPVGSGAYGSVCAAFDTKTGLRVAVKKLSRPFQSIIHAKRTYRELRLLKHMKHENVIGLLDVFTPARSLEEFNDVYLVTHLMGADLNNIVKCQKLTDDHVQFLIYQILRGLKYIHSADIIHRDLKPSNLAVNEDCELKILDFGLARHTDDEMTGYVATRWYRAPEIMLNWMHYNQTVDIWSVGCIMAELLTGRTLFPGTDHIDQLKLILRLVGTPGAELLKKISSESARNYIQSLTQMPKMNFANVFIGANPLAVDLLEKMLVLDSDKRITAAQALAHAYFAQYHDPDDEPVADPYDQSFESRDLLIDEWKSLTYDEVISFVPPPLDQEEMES

Row | SMILES | IC50 (p38 MAPKα) | IC50 (c-Src) | IC50 (Syk) | IC50 (GSK3α) | IC50 (PBMCs [1]; [4]) | IC50 (PBMCs [2]; [5]) | IC50 (PBMCs [2]; [6]) | IC50 (HT29 cells) | TNBS Ulcer grade ([3]; 5 mg/kg oral, conducted over 2 days, vehicle 3.6 ± 0.3 (exp. 1), 4.4 ± 0.2 (exp. 2)) | TNBS LP inflammation ([3]; 5 mg/kg oral, conducted over 2 days, vehicle 3.9 ± 0.3 (exp. 1), 4.5 ± 0.2 (exp. 2)) | activity in in vivo model of colonic inflammation (histopathology analysis) ([3]; conducted over 2 days) | inflammatory cell infiltrate in the reticular and laminar propria zone ([3]; dosed orally at 5 mg/kg) | ulcer grade and epithelial repair compared to the vehicle control ([3]; dosed orally at 5 mg/kg) | IC50 (d-U937 cells; [7]) | IC50 (d-U937 cells; [8]) | IC50 (PBMCs [1]; TNFα, read-out: IC50 Values for Inhibition of Cytokine Release, PBMCs TNFα)
1 | Cc1cc(Nc2nccc(Oc3ccc(NC(=O)Nc4cc(C(C)(C)C)nn4-c4cccc(CP(C)(C)=O)c4)c4ccccc34)n2)cc2cn[nH]c12 [Example 32, 1-(3-(tert-Butyl)-1-(3-((dimethylphosphoryl)methyl)phenyl)-1H-pyrazol-5-yl)-3-(4-((2-((7-methyl-1H-indazol-5-yl)amino)pyrimidin-4-yl)oxy)naphthalen-1-yl)urea] | 60 nM | 5 nM | 5 nM | 1320 nM | 1.3 nM | 2.3 nM | 4.2 nM | 1.9 nM | 3.3 ± 0.4 | 2.7 ± 0.4 | significant activity | marked reduction | marked improvements | – | – | –
2 | CC(C)(C)c1cc(NC(=O)Nc2ccc(Oc3ccnc(Nc4cc(OC(F)(F)F)cc(C(=O)NCCN5CCOCC5)c4)n3)c3ccccc23)n(-c2cccc(CP(C)(C)=O)c2)n1 [Example 59, 3-((4-((4-(3-(3-(tert-Butyl)-1-(3-((dimethylphosphoryl)methyl)phenyl)-1H-pyrazol-5-yl)-ureido)naphthalen-1-yl)oxy)pyrimidin-2-yl)amino)-N-(2-morpholinoethyl)-5-(trifluoromethoxy)benzamide] | 81 nM | 7 nM | 18 nM | 1240 nM | 0.8 nM | 2.5 nM | 75.1 nM | 1.9 nM | – | – | – | – | – | 0.9 nM | – | –
3 | COc1cc(Nc2nccc(Oc3ccc(NC(=O)Nc4cc(C(C)C)nn4-c4cccc(CP(C)(C)=O)c4)c4ccccc34)n2)cc(OCCN2CCOCC2)c1 [Example 39, 1-(1-(3-((Dimethylphosphoryl)methyl)phenyl)-3-isopropyl-1H-pyrazol-5-yl)-3-(4-((2-((3-methoxy-5-(2-morpholinoethoxy)phenyl)amino)pyrimidin-4-yl)oxy)naphthalen-1-yl)urea] | 13 nM | 3 nM | 1 nM | 2230 nM | 1.2 nM | – | – | 4.6 nM | – | – | – | – | – | – | 0.5 nM | –
4 | CC(C)(C)c1cc(NC(=O)Nc2ccc(Oc3ccnc(Nc4ccccc4)n3)c3ccccc23)n(-c2cccc(CP(C)(C)=O)c2)n1 [Example 23, 1-(3-(tert-Butyl)-1-(3-((dimethylphosphoryl)methyl)phenyl)-1H-pyrazol-5-yl)-3-(4-((2-(phenylamino)pyrimidin-4-yl)oxy)naphthalen-1-yl)urea] | 265 nM | 40 nM | 97 nM | 1640 nM | 7.5 nM | – | 42.7 nM | 13.5 nM | – | – | – | – | – | 2.2 nM | 1.4 nM | –
5 | COCCOCCOCCOc1cc(Nc2nccc(Oc3ccc(NC(=O)Nc4cc(C(C)C)nn4-c4cccc(CP(C)(C)=O)c4)c4ccccc34)n2)cc(OC)c1 [Example 45, 1-(1-(3-((Dimethylphosphoryl)methyl)phenyl)-3-isopropyl-1H-pyrazol-5-yl)-3-(4-((2-((3-methoxy-5-(2-(2-(2-methoxyethoxy)ethoxy)ethoxy)phenyl)amino)pyrimidin-4-yl)oxy)naphthalen-1-yl)urea] | 21 nM | – | – | 1130 nM | 3.3 nM | – | 19.3 nM | 6.5 nM | – | – | – | – | – | – | 3.9 nM | –
6 | COc1cc(Nc2nccc(Oc3ccc(NC(=O)Nc4cc(C(C)C)nn4-c4cccc(CP(C)(C)=O)c4)c4ccccc34)n2)cc(C(=O)NCCN2CCOCC2)c1 [Example 38, 3-((4-((4-(3-(1-(3-((Dimethylphosphoryl)methyl)phenyl)-3-isopropyl-1H-pyrazol-5-yl)-ureido)naphthalen-1-yl)oxy)pyrimidin-2-yl)amino)-5-methoxy-N-(2-morpholinoethyl)-benzamide] | 10 nM | 2 nM | 3 nM | 1250 nM | 3.8 nM | – | 9.2 nM | 27 nM | – | – | – | – | – | 2.9 nM | 1.6 nM | –
7 | CN(c1ccccc1)c1nccc(Oc2ccc(NC(=O)Nc3cc(C(C)(C)C)nn3-c3ccc(P(C)(C)=O)cc3)c3ccccc23)n1 [Example 15, 1-(3-(tert-Butyl)-1-(4-(dimethylphosphoryl)phenyl)-1H-pyrazol-5-yl)-3-(4-((2-(methyl-(phenyl)amino)pyrimidin-4-yl)oxy)naphthalen-1-yl)urea] | 56 nM | > 1000 nM | > 1000 nM | > 10000 nM | 680 nM | – | – | 632 nM | – | – | – | – | – | 398 nM | 182 nM | 200 nM
